In patent US20160024057A1, “INDAZOLE RETINOIC ACID RECEPTOR-RELATED ORPHAN RECEPTOR MODULATORS AND USES THEREOF” (INNOV17 LLC, priority 2014, published 2016) one finds IC50 data, which are given here for 18 compounds.

Holding throughout (format): cell-based
Test [1] deals with IL-21. Put plainly: Human TH17 cytokine inhibition measured by ELISA: IL-21. The settings on record: 72 h; human CD4+ T cells under TH17-polarizing conditions, 3 days, supernatant ELISA. The protocol:
(§1) Human TH17 Cytokine Inhibition as Measured by ELISA
(§2) Peripheral blood mononuclear cells (PBMCs) were sourced from freshly prepared leukocyte enriched plasma (buffy coat) from healthy donors (New York Blood Center). PBMCs were isolated by density gradient centrifugation using Ficoll-Paque™ PLUS (GE Healthcare). Human CD4+ T cells were seeded into 96-well plates (5×10^4 cells/well) and activated with plate-bound anti-human (h)-CD3 antibody and soluble h-aCD28 (both at 1 ug/ml; eBioscience) and differentiated into TH17 cells with 20 ng/mL h-IL-6, 5 ng/mL h-TGF-β1, 10 ng/mL h-IL-23 (eBioscience) and 10 ng/mL IL-1β (Miltenyi Biotec) in serum-free TexMACS Medium (Miltenyi Biotec) supplemented with 1% Penicillin/Streptomycin (Lonza) for 3 days. CD4+ T cells propagated under TH17-polarizing conditions were cultured in the presence or absence of various concentrations of compounds with a final concentration of 0.1% DMSO. Supernatants were collected and stored at −20° C. until assayed for IL-17A, IL-17F and IL-21 levels by “Ready-Set-Go” ELISA kits (eBioscience) as per manufacturer's instructions. Endpoint absorbance was read at 450 nm using a microplate reader (Perkin Elmer).

Test [2] has as its system IL-17F. Put plainly: Human TH17 cytokine inhibition measured by ELISA: IL-17F. The settings on record: 72 h; human CD4+ T cells under TH17-polarizing conditions, 3 days, supernatant ELISA. The protocol: as §1, §2
Test [3] has as its system IL-17A. The experiment in a line: Human TH17 cytokine inhibition measured by ELISA: IL-17A. The following applies: human CD4+ T cells under TH17-polarizing conditions, 3 days, supernatant ELISA. The protocol:
as §1, §2

Test [4] relates to IL-22. The experiment in a line: Human TH17 cytokine inhibition measured by ELISA: IL-22. The settings on record: 72 h; human CD4+ T cells under TH17-polarizing conditions, 3 days, supernatant ELISA.

In the case of `C[C@@H]1C[C@H](Cn2ncc3cc(-c4cn[nH]c4)ccc32)CN1S(=O)(=O)c1ccccc1` (racemic) [Example 33, rac.-cis-1-((-5-methyl-1-(phenylsulfonyl)pyrrolidin-3-yl)methyl)-5-(1H-pyrazol-4-yl)-1H-indazole], the half-inhibitory concentration (IC50) in test [1], in test [2] and in test [3] (72 h) was less than 10 µM each time.
`C[C@@H]1C[C@@H](Cn2ncc3cc(-c4cn[nH]c4)ccc32)CN1S(=O)(=O)c1ccccc1` (racemic) [Example 34, rac.-trans-1-((-5-methyl-1-(phenylsulfonyl)pyrrolidin-3-yl)methyl)-5-(1H-pyrazol-4-yl)-1H-indazole] gave an IC50 in test [3] of less than 10 µM.
`C[C@H]1C[C@@H](Cn2ncc3cc(-c4cn[nH]c4)ccc32)CN1C(=O)CCc1ccccc1` (racemic) [Example 46, rac.-cis-1-(4-((5-(1H-pyrazol-4-yl)-1H-indazol-1-yl)methyl)-2-methylpyrrolidin-1-yl)-3-phenylpropan-1-one]: the IC50 in test [1], in test [2] and in test [3] (72 h) was less than 10 µM in each case.
As for `C[C@@H]1C[C@@H](Cn2ncc3cc(-c4cn[nH]c4)ccc32)CN1C(=O)CCc1ccccc1` (racemic) [Example 47, rac.-trans-1-(4-((5-(1H-pyrazol-4-yl)-1H-indazol-1-yl)methyl)-2-methylpyrrolidin-1-yl)-3-phenylpropan-1-one], the IC50 in test [1], in test [2] and in test [3] (72 h) was less than 10 µM throughout.
Turning to `O=C(CCc1ccccc1)N1CCC(Cn2ncc3cc(-c4cn[nH]c4)ccc32)CC1` [Example 3, 1-(4-((5-(1H-pyrazol-4-yl)-1H-indazol-1-yl)methyl)piperidin-1-yl)-3-phenylpropan-1-one], the IC50 in test [1], in test [2] and in test [3] (72 h) was less than 10 µM throughout.
In the case of `O=C(CC1CCCCC1)N1CCC(Cn2ncc3cc(-c4cn[nH]c4)ccc32)CC1` [Example 4, 1-(4-((5-(1H-pyrazol-4-yl)-1H-indazol-1-yl)methyl)piperidin-1-yl)-2-cyclohexylethanone], the half-maximal inhibitory concentration (IC50) in test [1], in test [2] and in test [3] (72 h) was less than 10 µM each time.
On to `O=C(Cc1ccccc1)N1CCC(Cn2ncc3cc(-c4cn[nH]c4)ccc32)CC1` [Example 7, 1-(4-((5-(1H-pyrazol-4-yl)-1H-indazol-1-yl)methyl)piperidin-1-yl)-2-phenylethanone], for which the IC50 in test [1], in test [2] and in test [3] (72 h) was less than 10 µM in each case.
As to `O=C(CCCc1ccccc1)N1CCC(Cn2ncc3cc(-c4cn[nH]c4)ccc32)CC1` [Example 8, 1-(4-((5-(1H-pyrazol-4-yl)-1H-indazol-1-yl)methyl)piperidin-1-yl)-4-phenylbutan-1-one], the IC50 in test [1], in test [2] and in test [3] (72 h) was less than 10 µM in each case.
`CC1(C)CC(Cn2ncc3cc(-c4cn[nH]c4)ccc32)CN1C(=O)Cc1ccccc1` (centres unmarked) [Example 19, 1-(4-((5-(1H-pyrazol-4-yl)-1H-indazol-1-yl)methyl)-2,2-dimethylpyrrolidin-1-yl)-2-phenylethanone]: the 50% inhibitory concentration (IC50) in test [2] and in test [3] (72 h) was less than 10 µM each time.
In the case of `O=S(=O)(c1ccccc1)N1CCC(Cn2ncc3cc(-c4cn[nH]c4)ccc32)CC1` [Example 30, 1-((1-(phenylsulfonyl)piperidin-4-yl)methyl)-5-(1H-pyrazol-4-yl)-1H-indazole], the IC50 in test [4], in test [1], in test [2] and in test [3] (72 h) was less than 10 µM in each case.
In the case of `O=S(=O)(Cc1ccccc1)N1CCC(Cn2ncc3cc(-c4cn[nH]c4)ccc32)CC1` [Example 32, 1-((1-(benzylsulfonyl)piperidin-4-yl)methyl)-5-(1H-pyrazol-4-yl)-1H-indazole], the IC50 in test [4], in test [1], in test [2] and in test [3] (72 h) was less than 10 µM in each case.
Consider `CC1(C)CC(Cn2ncc3cc(-c4cn[nH]c4)ccc32)CN1S(=O)(=O)c1ccccc1` (centres unmarked) [Example 35, 1-((5,5-dimethyl-1-(phenylsulfonyl)pyrrolidin-3-yl)methyl)-5-(1H-pyrazol-4-yl)-1H-indazole], for which the half-inhibitory concentration (IC50) in test [1], in test [2] and in test [3] (72 h) was less than 10 µM in each case.
Regarding `O=S(=O)(c1ccc(F)cc1)N1CCC(Cn2ncc3cc(-c4cn[nH]c4)ccc32)CC1` [Example 37, 1-((1-((4-fluorophenyl)sulfonyl)piperidin-4-yl)methyl)-5-(1H-pyrazol-4-yl)-1H-indazole], the IC50 in test [2] and in test [3] (72 h) was less than 10 µM throughout.
Turning to `N#Cc1ccc(S(=O)(=O)N2CCC(Cn3ncc4cc(-c5cn[nH]c5)ccc43)CC2)cc1` [Example 38, 4-(4-((5-(1H-pyrazol-4-yl)-1H-indazol-1-yl)methyl)piperidin-1-ylsulfonyl)benzonitrile], the IC50 in test [2] and in test [3] (72 h) was less than 10 µM in each case.
For `O=S(=O)(c1cccnc1)N1CCC(Cn2ncc3cc(-c4cn[nH]c4)ccc32)CC1` [Example 39, 5-(1H-pyrazol-4-yl)-1-((1-(pyridin-3-ylsulfonyl)piperidin-4-yl)methyl)-1H-indazole], the IC50 in test [2] and in test [3] (72 h) was less than 10 µM throughout.
With `Cc1ccc(S(=O)(=O)N2CCC(Cn3ncc4cc(-c5cn[nH]c5)ccc43)CC2)cc1` [Example 42, 5-(1H-pyrazol-4-yl)-1-((1-tosylpiperidin-4-yl)methyl)-1H-indazole], the IC50 in test [2] and in test [3] (72 h) was less than 10 µM in each case.
In the case of `N#Cc1cccc(S(=O)(=O)N2CCC(Cn3ncc4cc(-c5cn[nH]c5)ccc43)CC2)c1` [Example 43, 3-((4-((5-(1H-pyrazol-4-yl)-1H-indazol-1-yl)methyl)piperidin-1-yl)sulfonyl)benzonitrile], the IC50 in test [2] and in test [3] (72 h) was less than 10 µM in each case.
In the case of `O=S(=O)(c1ccc(C(F)F)cc1)N1CCC(Cn2ncc3cc(-c4cn[nH]c4)ccc32)CC1` [Example 44, 1-((1-((4-(difluoromethyl)phenyl)sulfonyl)piperidin-4-yl)methyl)-5-(1H-pyrazol-4-yl)-1H-indazole], the IC50 in test [2] and in test [3] (72 h) was less than 10 µM in each case.
